# Measurements reported in patent US11827628B2, “Compositions and methods for inhibition of the JAK pathway” (Rigel Pharmaceuticals, Inc., priority 2005, dated 2023).
# Tested on: Primary human T-cells
# Test: Primary Human T-Cell Proliferation Assay Stimulated with IL-2 (CellTiter-Glo)
# Format: cell-based
# Details: Homo sapiens, T-cell, primary human T-cells stimulated with IL-2, proliferation; read-out: IC50, Example 42
# Procedure, shortened: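 IC50 derived from CellTiter-Glo ATP signal after 72 hours of IL-2-driven proliferation at 37° C. Cells: primary human T-cells from blood, stimulated beforehand 3-4 days on anti-CD3/anti-CD28 with IL-2, then rested from IL-2 before compound exposure in duplicate; IL-2-free wells served as unstimulated control.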
row,Structure (SMILES),IC50 [nM]
1,"Cc1cnc(Nc2cccc(S(N)(=O)=O)c2)nc1Nc1ccc2c(c1)N(C)C(=O)CS2 [VII-35, N2-(3-Aminosulphonylphenyl)-5-methyl-N4-(4-methyl-3-oxo-benzo[1,4]thiazin-6-yl)-2,4-pyrimidinediamine]",46.1
2,"Cc1cnc(Nc2cccc(S(N)(=O)=O)c2)nc1Nc1ccc2c(c1)NC(=O)CO2 [VII-32, N2-(3-Aminosulphonylphenyl)-5-methyl-N4-(3-oxo-benz[1,4]oxazin-6-yl)-2,4-pyrimidinediamine]",32.1
3,"NC(=O)c1cc2cc(Nc3nc(Nc4cccc(S(N)(=O)=O)c4)ncc3F)ccc2o1 [VII-54, N2-(3-Aminosulfonylphenyl)-N4-(2-aminocarbonylbenzofurane-5-yl)-5-fluoro-2,4-pyrimidinediamine]",596
4,"NS(=O)(=O)c1cccc(Nc2ncc(F)c(Nc3ccc(Cl)c(Cl)c3)n2)c1 [VI-110, N2-(3-Aminosulfonylphenyl)-N4-(3,4-dichlorophenyl)-5-fluoro-2,4-pyrimidinediamine]",345
5,"CNC(=O)OCc1cccc(Nc2nc(Nc3ccc(C)c(S(N)(=O)=O)c3)ncc2F)c1 [VI-49, N2-(3-Aminosulfonyl-4-methylphenyl)-5-fluoro-N4-[3-(methylaminocarbonyloxymethyl)phenyl]-2,4-pyrimidinediamine]",1260
6,"C#CCOC(=O)NCc1ccc(Nc2nc(Nc3cccc(S(N)(=O)=O)c3)ncc2F)cc1 [VI-74, N2-(3-Aminosulfonylphenyl)-5-fluoro-N4-{4-[(prop-2-ynyloxy)carbonylaminomethyl]phenyl}-2,4-pyrimidinediamine]",348
7,"Cc1cnc(Nc2ccc(S(N)(=O)=O)cc2)nc1Nc1ccc2c(c1)NC(=O)CO2 [VII-31, N2-(4-Aminosulphonylphenyl)-5-methyl-N4-(3-oxo-benz[1,4]oxazin-6-yl)-2,4-pyrimidinediamine]",174
8,"Cc1ccc(Nc2ncc(F)c(Nc3cccc(-c4cnco4)c3)n2)cc1S(N)(=O)=O [IV-2, N2-(3-Aminosulfonyl-4-methylphenyl)-5-fluoro-N4-[3-(1,3-oxazol-5-yl)phenyl]-2,4-pyrimidinediamine]",362
9,"C#CCOc1ccc(Nc2nc(Nc3ccc(N4CCN(C)CC4)c(S(N)(=O)=O)c3)ncc2F)cc1 [VI-70, N2-[3-Aminosulfonyl-4-(1-methylpiperazin-4-yl)phenyl]-5-fluoro-N4-[4-(prop-2-ynyloxy)phenyl]-2,4-pyrimidinediamine]",311
10,"N#CCN1C(=O)COc2ccc(Nc3nc(Nc4ccc(S(N)(=O)=O)cc4)ncc3F)cc21 [Compound V-6, N2-(4-Aminosulphonylphenyl)-5-fluoro-N4-(3-oxo-4-cyanomethyl-benz[1,4]oxazin-6-yl]-2,4-pyrimidinediamine]",70.8
11,"N#CCc1c[nH]c2cc(Nc3nc(Nc4cccc(S(N)(=O)=O)c4)ncc3F)ccc12 [IX-12, N2-(3-Aminosulfonylphenyl)-N4-(3-cyanomethyl-1H-indol-6-yl)-5-fluoro-2,4-pyrimidinediamine]",117
12,"Cc1cc(Nc2ncc(F)c(Nc3ccc(OC(F)(F)F)c(Cl)c3)n2)cc(S(N)(=O)=O)c1Cl [VI-18, N2-(3-Aminosulfonyl-4-chloro-5-methylphenyl)-N4-(3-chloro-4-trifluoromethoxyphenyl)-5-fluoro-2,4-pyrimidinediamine]",4370
13,"COc1cc(Nc2nc(Nc3ccc(C)c(S(N)(=O)=O)c3)ncc2F)ccc1Cl [VI-5, N2-(3-Aminosulfonyl-4-methylphenyl)-N4-(4-chloro-3-methoxyphenyl)-5-fluoro-2,4-pyrimidinediamine]",718
14,"Cc1ccc(Nc2ncc(F)c(Nc3cccc4c(CC#N)c[nH]c34)n2)cc1S(N)(=O)=O [IX-16, N2-(3-Aminosulfonyl-4-methylphenyl)-N4-(3-cyanomethyl-1H-indol-7-yl)-5-fluoro-2,4-pyrimidinediamine]",223
15,"CN1C(=O)C(C)(C)S(=O)(=O)c2ccc(Nc3nc(Nc4ccc(S(N)(=O)=O)cc4)ncc3F)cc21 [VII-12, N2-(4-Aminosulphonylphenyl)-5-fluoro-N4-(2,2,4-trimethyl-1,1,3-trioxo-benzo[1,4]thiazin-6-yl)-2,4-pyrimidinediamine]",6690
16,"C#CCOc1ccc(Nc2nc(Nc3ccc(Cl)c(S(N)(=O)=O)c3)ncc2F)cc1 [VI-55, N2-(3-Aminosulfonyl-4-chlorophenyl)-5-fluoro-N4-[4-(prop-2-ynyloxy)phenyl]-2,4-pyrimidinediamine]",625
17,"Cc1ccc(Nc2ncc(F)c(Nc3ccc(C(F)(F)F)cc3)n2)cc1S(N)(=O)=O [VI-50, N2-(3-Aminosulfonyl-4-methylphenyl)-5-fluoro-N4-(4-trifluoromethylphenyl)-2,4-pyrimidinediamine]",944
18,"NS(=O)(=O)c1cccc(Nc2ncc(F)c(Nc3ccc4sccc4c3)n2)c1 [VII-58, N2-(3-Aminosulfonylphenyl)-N4-(benzothiophen-5-yl)-5-fluoro-2,4-pyrimidinediamine]",265
19,"Cc1ccc(Nc2ncc(F)c(Nc3cccc4cccnc34)n2)cc1S(N)(=O)=O [VII-77, N2-(3-Aminosulfonyl-4-methylphenyl)-5-fluoro-N4-(quinolin-8-yl)-2,4-pyrimidinediamine]",1780
20,"NS(=O)(=O)c1cccc(Nc2ncc(F)c(Nc3ccc(C(F)(F)F)cc3)n2)c1 [VI-51, N2-(3-Aminosulfonylphenyl)-5-fluoro-N4-(4-trifluoromethylphenyl)-2,4-pyrimidinediamine]",547
21,"N#CCN1C(=O)CSc2ccc(Nc3nc(Nc4ccc(S(N)(=O)=O)cc4)ncc3F)cc21 [Compound V-11, N2-(4-Aminosulphonylphenyl)-5-fluoro-N4-(3-oxo-4-cyanomethyl-benzo[1,4]thiazin-6-yl)-2,4-pyrimidinediamine]",795
22,"NS(=O)(=O)c1cccc(Nc2ncc(F)c(Nc3ccc(C(=O)N4CCSCC4)cc3)n2)c1 [IX-34, N2-(3-Aminosulfonylphenyl)-5-fluoro-N4-[4-(4-thiomorpholinyl)carbonylphenyl]-2,4-pyrimidinediamine]",576
23,"C#CCn1ccc2cc(Nc3nc(Nc4cccc(S(N)(=O)=O)c4)ncc3F)ccc21 [IX-2, N2-(3-Aminosulfonylphenyl)-5-fluoro-N4-[1-(propyn-3-yl)indol-5-yl]-2,4-pyrimidinediamine]",282
24,"NS(=O)(=O)c1cccc(Nc2ncc(F)c(Nc3cccc(-c4cnco4)c3)n2)c1 [IV-1, N2-(3-Aminosulfonylphenyl)-5-fluoro-N4-[3-(1,3-oxazol-5-yl)phenyl]-2,4-pyrimidinediamine]",287
25,"COc1ccc(CN2C(=O)C(C)Sc3ccc(Nc4nc(Nc5ccc(S(N)(=O)=O)cc5)ncc4F)cc32)cc1 (racemic) [Compound V-10, (R/S)-N2-(4-Aminosulphonylphenyl)-5-fluoro-N4-[2-methyl-3-oxo-4-(4-methoxybenzyl)-benzo[1,4]thiazin-6-yl]-2,4-pyrimidinediamine]",8270
26,"COc1ccc(Nc2nc(Nc3cc(C)c(F)c(S(N)(=O)=O)c3)ncc2F)cc1Cl [VI-15, N2-(3-Aminosulfonyl-4-fluoro-5-methylphenyl)-N4-(3-chloro-4-methoxyphenyl)-5-fluoro-2,4-pyrimidinediamine]",469
27,"Cc1ccc(Nc2ncc(F)c(Nc3ccc4c(CC#N)c[nH]c4c3)n2)cc1S(N)(=O)=O [IX-11, N2-(3-Aminosulfonyl-4-methylphenyl)-N4-(3-cyanomethyl-1H-indol-6-yl)-5-fluoro-2,4-pyrimidinediamine]",215
